Measured values reported in ChEMBL document CHEMBL1667765, “Syntheses, antiproliferative activity and theoretical characterization of acitretin-type retinoids with changes in the lipophilic part” (2011).
Active and inactive are the calls of the source. The calls are words filed in the database; no cut-off is given here.

Legend:
MCF7 [1] = assay: Antiproliferative activity against human MCF7 cells expressing estrogen receptor assessed as cell growth inhibition 50 uM after 72 hrs by WST-1 assay relative to control; assay type: functional
MCF7 [2] = assay: Antiproliferative activity against human MCF7 cells expressing estrogen receptor after 72 hrs by MTT assay; assay type: functional, cell-based
MCF7 [3] = assay: Cell cycle arrest in human MCF7 cells expressing estrogen receptor at 10^-5 M after 9 to 48 hrs using propidium iodide staining by FACS analysis; assay type: functional, cell-based
MCF7 [4] = assay: Induction of apoptosis in human MCF7 cells expressing estrogen receptor assessed as increase of PARP cleavage at 10^-5 M after 4 hrs by Western blotting; assay type: functional, cell-based
[5] = molecular target: RAC-alpha serine/threonine-protein kinase (Homo sapiens) (UniProt P31749); assay: Activation of Akt in human MCF7 cells expressing estrogen receptor at 10^-5 M after 4 hrs by Western blotting; assay type: functional, cell-based
Chain of RAC-alpha serine/threonine-protein kinase (Homo sapiens) (P31749 whole entry): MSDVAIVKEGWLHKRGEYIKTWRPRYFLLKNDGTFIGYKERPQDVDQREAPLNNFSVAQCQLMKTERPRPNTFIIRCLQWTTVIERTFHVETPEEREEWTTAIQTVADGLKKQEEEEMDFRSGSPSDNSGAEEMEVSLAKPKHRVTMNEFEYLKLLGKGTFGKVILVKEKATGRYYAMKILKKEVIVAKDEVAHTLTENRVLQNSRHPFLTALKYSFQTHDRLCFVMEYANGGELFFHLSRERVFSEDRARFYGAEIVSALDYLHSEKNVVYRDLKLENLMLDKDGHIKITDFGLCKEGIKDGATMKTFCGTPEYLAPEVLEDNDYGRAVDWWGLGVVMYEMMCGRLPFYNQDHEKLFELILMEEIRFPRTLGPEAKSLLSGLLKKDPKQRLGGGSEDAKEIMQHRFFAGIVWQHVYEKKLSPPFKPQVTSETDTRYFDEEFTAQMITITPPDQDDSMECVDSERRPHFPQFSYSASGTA

MCF7 [6] = assay: Antiproliferative activity against human MCF7 cells expressing estrogen receptor after 72 hrs by WST-1 assay; assay type: functional, cell-based
MCF7 [7] = assay: Induction of apoptosis in human MCF7 cells expressing estrogen receptor assessed as increase of PARP cleavage at 10^-5 M after 9 hrs by Western blotting; assay type: functional, cell-based
[8] = molecular target: RAC-alpha serine/threonine-protein kinase (Homo sapiens) (UniProt P31749); assay: Activation of Akt in human MCF7 cells expressing estrogen receptor at 10^-5 M after 9 hrs by Western blotting; assay type: functional, cell-based
MCF7 [9] = assay: Antiproliferative activity against human MCF7 cells expressing estrogen receptor at 10 uM after 72 hrs by WST-1 assay; assay type: functional; settings: MCF7, 72 h
MCF7 [10] = assay: Antiproliferative activity against human MCF7 cells expressing estrogen receptor assessed as cell growth inhibition 5 uM after 72 hrs by WST-1 assay relative to control; assay type: functional

COc1cc(OC)c(/C=C/C(C)=C/C=C/C(C)=C/C(=O)O)c(OC)c1
inhibition (INH) (MCF7 [1]): -53%
inhibition (MCF7 [2]): Active
Activity (MCF7 [3]): inactive
Activity (MCF7 [4]): inactive
Activity [5]: inactive
inhibition (MCF7 [6]): Active
Activity (MCF7 [7]): inactive
Activity [8]: inactive
inhibition at 10 µM (MCF7 [9]): 52%

CC(/C=C/c1ccc(N(C)C)cc1)=C\C=C\C(C)=C\C(=O)O
inhibition (INH) (MCF7 [1]): 5%

COc1ccc(/C=C/C(C)=C/C=C/C(C)=C/C(=O)O)cc1OC
inhibition (INH) (MCF7 [1]): -30%

COc1ccc2cc(/C(C)=C/C=C/C(C)=C/C(=O)O)ccc2c1
inhibition (INH) (MCF7 [1]): -32%

CC(/C=C/C=C(\C)c1ccc2ccc3cccc4ccc1c2c34)=C\C(=O)O
inhibition (INH) (MCF7 [1]): 8%

CC(/C=C/c1cc(F)c(F)cc1F)=C\C=C\C(C)=C\C(=O)O
inhibition (INH) (MCF7 [10]): 2%
inhibition (INH) (MCF7 [1]): 10%

CC1=C(/C=C/C(C)=C/C=C/C(C)=C/C(=O)O)C(C)(C)CCC1 [TRETINOIN]
inhibition (INH) (MCF7 [1]): 3.1%

CN[C@@H]1C[C@H]2O[C@@](C)([C@@H]1OC)n1c3ccccc3c3c4c(c5c6ccccc6n2c5c31)C(=O)NC4
Activity (MCF7 [4]): Active
Activity (MCF7 [7]): Active

CC(/C=C/c1ccc2ccccc2c1)=C\C=C\C(C)=C\C(=O)O
inhibition (INH) (MCF7 [1]): -25%

CC(/C=C/c1ccc2ccc3cccc4ccc1c2c34)=C\C=C\C(C)=C\C(=O)O
inhibition (INH) (MCF7 [10]): 5.2%
inhibition (INH) (MCF7 [1]): 4%

COc1cc(C)c(/C=C/C(C)=C/C=C/C(C)=C/C(=O)O)c(C)c1C
inhibition (MCF7 [6]): Dose-dependent effect

CC(/C=C/C=C(\C)c1ccc2cc3ccccc3cc2c1)=C\C(=O)O
inhibition (INH) (MCF7 [1]): 15%

CC(/C=C/c1ccc(C(F)(F)F)cc1C(F)(F)F)=C\C=C\C(C)=C\C(=O)O
inhibition (INH) (MCF7 [10]): 13.9%
inhibition (INH) (MCF7 [1]): 6%
